Experimental data from patent US20230159463A1, “BENZONITRIC HETEROCYCLIC COMPOUND, PREPARATION METHOD THEREFOR AND USE THEREOF” (SHANGHAI ZHONGZE THERAPEUTICS, CO. LTD., priority 2020, published 2023).
Like-named read-outs stand apart in the source and are kept apart here.

Key:
[1] = target: T1, HDAC6 (Homo sapiens, UniProt Q9UBN7); assay: HDAC6 inhibitor screening kit (Biovision), in vitro inhibitory activity; format: biochemical
T1 construct: purchased Biovision Company
T1 sequence (Q9UBN7 1-1215): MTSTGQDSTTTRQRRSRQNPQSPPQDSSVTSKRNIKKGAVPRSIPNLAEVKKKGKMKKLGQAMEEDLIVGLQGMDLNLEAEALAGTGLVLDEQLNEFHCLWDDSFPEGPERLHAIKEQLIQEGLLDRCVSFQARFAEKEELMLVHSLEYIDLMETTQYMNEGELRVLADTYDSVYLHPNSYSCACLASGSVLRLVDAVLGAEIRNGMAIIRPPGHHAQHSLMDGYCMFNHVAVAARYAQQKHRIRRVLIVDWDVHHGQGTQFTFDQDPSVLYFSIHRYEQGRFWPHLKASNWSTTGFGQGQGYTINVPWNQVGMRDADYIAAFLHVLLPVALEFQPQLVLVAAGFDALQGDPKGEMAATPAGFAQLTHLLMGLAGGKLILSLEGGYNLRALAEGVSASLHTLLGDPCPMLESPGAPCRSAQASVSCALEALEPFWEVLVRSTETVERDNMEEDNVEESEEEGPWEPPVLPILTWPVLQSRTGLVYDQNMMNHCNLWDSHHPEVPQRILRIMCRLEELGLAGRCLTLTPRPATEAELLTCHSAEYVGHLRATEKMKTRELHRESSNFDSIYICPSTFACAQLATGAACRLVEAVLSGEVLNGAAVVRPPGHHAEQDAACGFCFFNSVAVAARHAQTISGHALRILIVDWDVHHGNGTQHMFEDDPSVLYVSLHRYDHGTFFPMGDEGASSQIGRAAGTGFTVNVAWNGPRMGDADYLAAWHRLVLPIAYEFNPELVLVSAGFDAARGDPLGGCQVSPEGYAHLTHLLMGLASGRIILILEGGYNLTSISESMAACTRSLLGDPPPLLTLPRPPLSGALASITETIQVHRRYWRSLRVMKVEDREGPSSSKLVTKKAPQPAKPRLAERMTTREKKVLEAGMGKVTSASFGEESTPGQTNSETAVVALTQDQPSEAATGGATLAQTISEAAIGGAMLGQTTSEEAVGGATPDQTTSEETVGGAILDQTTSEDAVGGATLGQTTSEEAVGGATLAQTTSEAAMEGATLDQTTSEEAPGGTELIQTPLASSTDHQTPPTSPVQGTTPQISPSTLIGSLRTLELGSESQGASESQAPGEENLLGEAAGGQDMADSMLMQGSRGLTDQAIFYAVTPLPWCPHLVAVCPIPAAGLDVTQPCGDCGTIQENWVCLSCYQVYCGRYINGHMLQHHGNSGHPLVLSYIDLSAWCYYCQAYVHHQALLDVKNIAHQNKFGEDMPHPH
Description: (§1) The in vitro inhibitory activity of histone deacetylase of the compound was determined according to the instructions of HDAC1 and HDAC6 inhibitor screening kit (Biovision Company).

[2] = target: T2, HDAC1 (Homo sapiens, UniProt Q13547); assay: HDAC1 inhibitor screening kit (Biovision), in vitro inhibitory activity; format: biochemical
T2 construct: purchased Biovision Company
Description: as §1

[3] = test system: glioma cell line U-87MG; assay: In vitro anti-proliferative activity (CCK8), U-87MG; format: cell-based; settings: Homo sapiens, read-out: U-87MG (Glioma) Inh % in 10 μM
[4] = test system: myeloma cell line RPMI 8226; assay: In vitro anti-proliferative activity (CCK8), RPMI 8226; format: cell-based; settings: Homo sapiens, 48 hours, class symbol, read-out: RPMI 8226 (Myeloma) Inh % in 10 μM
Description: (§2) The specific results are shown in the table (unit: […] Test method: The tumor cells in the logarithmic growth phase with good growth status were inoculated into 96-well plates at 4×10^3 per well, and 8 duplicate wells were set up in each group. The cells were cultured in a cell incubator, after the cells adhered to the wall, […]. […] The experiment was repeated 3 times, and the average of the experimental results was taken as the final experimental result, and the inhibition rate was calculated.

[5] = test system: human liver cancer cell line HepG2; assay: In vitro anti-proliferative activity (CCK8), HepG2; format: cell-based; settings: read-out: Hep G2 (Liver cancer) Inh % in 10 μM
Description: as §2

[6] = test system: human lung cancer cell line A549; assay: In vitro anti-proliferative activity (CCK8), A549; format: cell-based; settings: read-out: A549 (Lung cancer) Inh % in 10 μM
Description: as §2

[7] = test system: MRC-5 human normal embryo lung fibroblast; assay: In vitro anti-proliferative activity (CCK8), MRC-5 normal cells; format: cell-based; settings: read-out: MRC-5 (Normal cell line) Inh % in 10 μM
[8] = test system: mixed cells and primary neurons in rat cortex; assay: Protective effect on HCA-induced neuronal cell damage; format: cell-based; settings: HCA 5 mmol/L; test concentration 0.1, 1.0 and 10.0 μM; compared with Tubastatin A at the same dose
[9] = target: T3, hERG potassium channels (Homo sapiens, UniProt Q12809); assay: hERG potassium channel whole-cell patch clamp; format: cell-based; settings: hERG-HEK293 cells, IKr current
T3 construct: expressed in transfected cells
Text: Whole-cell patch clamp technique was used to record the changes of hERG current (IKr) after different concentrations of compounds acted on HEK293 cells (hERG-HEK293 steady-state cells) expressing hERG potassium channels to study the half inhibitory concentration (IC50) of the above compounds on IKr.

[10] = Maximum tolerance dose by intragastric administration; settings: ICR, mouse, in vivo, po; mice, single intragastric administration, 14 days observation; read-out: maximum tolerated dose
Description: 40 ICR mice, half male and half […], weighing 18 to 20 g, were divided into 4 groups with 10 animals in each group. After 6 hours of fasting, the test samples in each group were taken with sterilized plastic syringe and orally gavaged at a volume of 0.3 mL/10 g. The general physical signs of animals and the death of animals were recorded at 1, 2 and 4 hours after administration. […] The dead animals were dissected to observe whether there were any visible pathological changes in the organs of the animals, and pathological examinations were carried out on suspicious tissues and organs.

[11] = test system: myeloma cell line RPMI 8226; assay: In vitro anti-proliferative activity (CCK8), RPMI 8226; format: cell-based; settings: Homo sapiens, RPMI-8226, 48 h, read-out: RPMI 8226 (Myeloma) Inh % in 10 μM
[12] = 10 μM, 48 hours, CCK8, class symbol
[13] = HepG2, 10 μM, 48 hours, CCK8, class symbol
[14] = A549, 10 μM, 48 hours, CCK8, class symbol
[15] = MRC5, 10 μM, 48 hours, CCK8, class symbol

T3 sequence (Q12809 whole entry): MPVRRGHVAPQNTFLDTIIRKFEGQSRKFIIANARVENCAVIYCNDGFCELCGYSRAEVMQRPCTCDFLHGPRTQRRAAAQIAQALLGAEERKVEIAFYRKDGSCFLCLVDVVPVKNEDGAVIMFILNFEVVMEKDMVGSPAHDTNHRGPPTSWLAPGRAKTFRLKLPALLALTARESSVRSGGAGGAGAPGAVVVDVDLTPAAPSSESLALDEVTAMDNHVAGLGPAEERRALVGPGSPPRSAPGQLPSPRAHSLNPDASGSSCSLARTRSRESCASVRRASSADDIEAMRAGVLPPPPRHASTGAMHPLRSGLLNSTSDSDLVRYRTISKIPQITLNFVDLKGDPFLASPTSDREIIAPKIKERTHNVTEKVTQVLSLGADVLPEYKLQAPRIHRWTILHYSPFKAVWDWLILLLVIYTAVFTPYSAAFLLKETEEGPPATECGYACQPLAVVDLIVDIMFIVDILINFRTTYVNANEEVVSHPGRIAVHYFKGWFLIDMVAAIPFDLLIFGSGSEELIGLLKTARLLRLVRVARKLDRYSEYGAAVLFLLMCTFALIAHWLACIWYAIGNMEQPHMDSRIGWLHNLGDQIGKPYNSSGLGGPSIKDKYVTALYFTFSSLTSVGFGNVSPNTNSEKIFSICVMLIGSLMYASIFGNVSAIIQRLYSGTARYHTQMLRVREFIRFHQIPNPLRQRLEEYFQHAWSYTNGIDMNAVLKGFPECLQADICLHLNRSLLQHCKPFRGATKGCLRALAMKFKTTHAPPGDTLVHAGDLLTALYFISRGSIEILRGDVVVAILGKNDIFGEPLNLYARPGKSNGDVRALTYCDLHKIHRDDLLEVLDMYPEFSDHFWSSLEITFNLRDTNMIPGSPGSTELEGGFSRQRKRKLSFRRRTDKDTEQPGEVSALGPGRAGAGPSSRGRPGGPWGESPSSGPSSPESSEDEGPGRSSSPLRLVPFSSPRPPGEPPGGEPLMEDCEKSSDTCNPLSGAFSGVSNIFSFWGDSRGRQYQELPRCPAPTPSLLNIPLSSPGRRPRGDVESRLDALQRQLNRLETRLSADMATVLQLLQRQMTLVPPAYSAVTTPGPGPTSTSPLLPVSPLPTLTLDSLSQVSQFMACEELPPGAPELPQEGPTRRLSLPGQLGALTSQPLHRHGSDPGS
T2 sequence (Q13547 whole entry): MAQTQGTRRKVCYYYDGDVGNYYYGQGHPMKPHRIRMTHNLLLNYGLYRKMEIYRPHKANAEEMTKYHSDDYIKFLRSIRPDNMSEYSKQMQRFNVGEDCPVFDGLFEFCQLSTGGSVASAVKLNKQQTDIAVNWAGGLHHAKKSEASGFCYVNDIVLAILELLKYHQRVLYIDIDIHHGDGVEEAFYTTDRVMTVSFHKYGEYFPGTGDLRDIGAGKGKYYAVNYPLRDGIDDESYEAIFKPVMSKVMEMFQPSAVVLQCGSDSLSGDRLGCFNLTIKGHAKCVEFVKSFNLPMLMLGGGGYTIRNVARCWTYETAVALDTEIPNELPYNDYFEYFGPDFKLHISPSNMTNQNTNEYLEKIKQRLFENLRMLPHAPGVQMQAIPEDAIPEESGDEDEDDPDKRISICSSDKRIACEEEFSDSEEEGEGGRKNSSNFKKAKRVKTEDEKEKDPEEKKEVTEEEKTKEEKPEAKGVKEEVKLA

Compound `COc1ccc2c(c1)CCCCN2Cc1ccc(C(=O)NO)cc1` [Compound T-5, 4-((7-methoxy-2,3,4,5-tetrahydro-1H-benzo[b]azepin-1-yl)methyl)-N-hydroxybenzamide] has an IC50 [1] of 5.6 nM, an IC50 [2] of 257 nM and an inhibition at 10 µM [3, 12] of 80 to 90%. The inhibition at 10 µM [4] was 90 to 100%, the inhibition at 10 µM [5, 13] was 90 to 100% and the inhibition at 10 µM [6, 14] was 70 to 80%. The inhibition at 10 µM [7, 15] was less than 50%, the “protective effect against HCA-induced neuronal excitotoxicity (cell survival rate)” value (“protective effect” below) [8] was “stronger than that of the HDAC6 inhibitor compound Tubastatin A” and the IC50 [9] was greater than 10000 nM. It also gave an MTD at 14 days [10] greater than 1000 mg/kg.

`O=C(NO)c1ccc(CN2CCCOc3ccccc32)cc1` [Compound T-15, 4-((3,4-dihydrobenzo[b][1,4]oxazepin-5(2H)-yl)methyl)-N-hydroxybenzamide] showed an IC50 [1] of 6.2 nM, an IC50 [2] of 367 nM and an inhibition at 10 µM [3, 12] of 80 to 90%. For the same compound, the inhibition at 10 µM [4] was 90 to 100%, the inhibition at 10 µM [5, 13] was 90 to 100% and the inhibition at 10 µM [6, 14] was 50 to 70%. The inhibition at 10 µM [7, 15] was less than 50%, the “protective effect” value [8] was “stronger than that of the HDAC6 inhibitor compound Tubastatin A” and the IC50 [9] was greater than 10000 nM. For the same compound, the MTD at 14 days [10] was greater than 1000 mg/kg.

Work on `O=C(NO)c1ccc(CN2CCCSc3ccccc32)cc1` [Compound T-16, 4-((3,4-dihydrobenzo[b][1,4]thiazepin-5(2H)-yl)methyl)-N-hydroxybenzamide] yielded an IC50 [1] of 1.2 nM, an IC50 [2] of 254 nM and an inhibition at 10 µM ([3]; 48 h) of 90 to 100%. For the same compound, the inhibition at 10 µM ([5]; HepG2, 48 h) was 90 to 100%, the inhibition at 10 µM ([6]; A549, 48 h) was 70 to 80% and the inhibition at 10 µM ([7]; MRC5, 48 h) was less than 50%. For the same compound, the “protective effect” value [8] was “stronger than that of the HDAC6 inhibitor compound Tubastatin A”, the IC50 [9] was greater than 10000 nM and the MTD at 14 days [10] was greater than 1000 mg/kg. The inhibition at 10 µM [11] was 90 to 100%.

Work on `O=C(NO)c1ccc(CN2CCCC(O)c3ccccc32)cc1` (stereo not shown) [Compound T-19, 4-((5-hydroxy-2,3,4,5-tetrahydro-1H-benzo[b]azepin-1-yl)methyl)-N-hydroxybenzamide] yielded an IC50 [1] of 6.4 nM, an IC50 [2] of 442 nM and an inhibition at 10 µM [3, 12] of 90 to 100%. For the same compound, the inhibition at 10 µM [4] was 90 to 100%, the inhibition at 10 µM [5, 13] was 90 to 100% and the inhibition at 10 µM [6, 14] was 50 to 70%. The inhibition at 10 µM [7, 15] was less than 50%, the “protective effect” value [8] was “stronger than that of the HDAC6 inhibitor compound Tubastatin A” and the IC50 [9] was greater than 10000 nM. The MTD at 14 days [10] was greater than 1000 mg/kg.

For `COc1ccc(C2CC2)c2c1CCN(Cc1ccc(C(=O)NO)cc1)CC2` [Compound T-28, 4-((6-cyclopropyl-9-methoxy-1,2,4,5-tetrahydro-3H-benzo[d]azepin-3-yl)methyl)-N-hydroxybenzamide], the IC50 [1] was 22 nM, the IC50 [2] was greater than 500 nM and the inhibition at 10 µM [3, 12] was 80 to 90%. For the same compound, the inhibition at 10 µM [4] was 90 to 100%, the inhibition at 10 µM [5, 13] was 90 to 100% and the inhibition at 10 µM [6, 14] was 50 to 70%. For the same compound, the inhibition at 10 µM [7, 15] was less than 50%, the “protective effect” value [8] was “stronger than that of the HDAC6 inhibitor compound Tubastatin A” and the IC50 [9] was greater than 10000 nM. For the same compound, the MTD at 14 days [10] was greater than 1000 mg/kg.

`O=C(CCCCCCNC(=O)c1cnc(N(c2ccccc2)c2ccccc2)nc1)NO` [Rocilinostat (ACY-1215), Rocilinostat, reference compound] gave an inhibition at 10 µM ([3]; 48 h) of 42.1%, an inhibition at 10 µM ([5]; HepG2, 48 h) of 93.4% and an inhibition at 10 µM ([6]; A549, 48 h) of 51.6%. The inhibition at 10 µM ([7]; MRC5, 48 h) was 46.7% and the inhibition at 10 µM [11] was 99.3%.
